Results reported in patent US20230405028A1 (priority 2020, published 2023).
Where two headings read alike, the source gives them in different places.

Tests used:
[1] = tested on: Human primary small intestinal epithelial cells (HSIEC)
mice = conditions: intraplantar injections (Bandell, 2004); cited from earlier work
rats = rats (Iwasaki, 2008); cited from earlier work
anandamide levels = conditions: chronic, but not acute, administration of 150 mg/kg (Smalheiser, 2019); cited from earlier work

| SMILES | Cellular Metabolic Activity ([1]; 5 μM, 24 h) | Cellular Metabolic Activity ([1]; 5 μM, 48 h) | Cellular Metabolic Activity ([1]; 5 μM, 72 h) | Cellular Metabolic Activity ([1]; 5 μM, 96 h) | Cellular Metabolic Activity ([1]; 5 μM, time 0) | Cellular Metabolic Activity ([1]; 10 μM, 24 h) | Cellular Metabolic Activity ([1]; 10 μM, 48 h) | Cellular Metabolic Activity ([1]; 10 μM, 72 h) | Cellular Metabolic Activity ([1]; 10 μM, 96 h) | Cellular Metabolic Activity ([1]; 10 μM, time 0) | Cellular Metabolic Activity ([1]; 20 μM, 24 h) | Cellular Metabolic Activity ([1]; 20 μM, 48 h) | Cellular Metabolic Activity ([1]; 20 μM, 72 h) | Cellular Metabolic Activity ([1]; 20 μM, 96 h) | Cellular Metabolic Activity ([1]; 20 μM, time 0) | Cellular Metabolic Activity ([1]; 40 μM, 24 h) | Cellular Metabolic Activity ([1]; 40 μM, 48 h) | Cellular Metabolic Activity ([1]; 40 μM, 72 h) | Cellular Metabolic Activity ([1]; 40 μM, 96 h) | Cellular Metabolic Activity ([1]; 40 μM, time 0) | also measured |
| --- | --- | --- | --- | --- | --- | --- | --- | --- | --- | --- | --- | --- | --- | --- | --- | --- | --- | --- | --- | --- | --- |
| O=C/C=C/c1ccccc1 [cinnamaldehyde, (2E)-3-phenylprop-2-enal] | 0.183 | 0.148 | 0.236 | 0.423 | 0.026 | 0.166 | 0.119 | 0.160 | 0.321 | 0.022 | 0.169 | 0.095 | 0.105 | 0.152 | 0.025 | 0.171 | 0.049 | 0.018 | 0.015 | 0.026 | Cellular Metabolic Activity ([1]; 80 μM, 24 h): 0.175; Cellular Metabolic Activity ([1]; 80 μM, 48 h): 0.021; Cellular Metabolic Activity ([1]; 80 μM, 72 h): 0; Cellular Metabolic Activity ([1]; 80 μM, time 0): 0.030; Cellular Metabolic Activity ([1]; 100 μM, 24 h): 0.171; Cellular Metabolic Activity ([1]; 100 μM, 48 h): 0.016; Cellular Metabolic Activity ([1]; 100 μM, time 0): 0.027; Cellular Metabolic Activity ([1]; 200 μM, 24 h): 0.191; Cellular Metabolic Activity ([1]; 200 μM, 48 h): 0.009; Cellular Metabolic Activity ([1]; 200 μM, time 0): 0.031; concentration above which inhibitory effect / significant toxicity (MTT) ([1]; human): over 10 μM; nociceptive behavior (mice): cause nociceptive behavior; adrenaline secretions (rats): increasing adrenaline secretions |
| COc1cc(/C=C/C(=O)CC(=O)/C=C/c2ccc(O)c(OC)c2)ccc1O [curcumin, (1E,6E)-1,7-bis(4-hydroxy-3-methoxyphenyl) hepta-1,6-diene-3,5-dione] | 0.079 | 0.148 | 0.299 | 0.595 | 0.036 | 0.070 | 0.115 | 0.215 | 0.466 | 0.036 | 0.059 | 0.057 | 0.060 | 0.038 | 0.040 | 0.038 | 0.026 | 0.014 | 0.00 | 0.039 | Cellular Metabolic Activity ([1]; 1 μM, 24 h): 0.086; Cellular Metabolic Activity ([1]; 1 μM, 48 h): 0.184; Cellular Metabolic Activity ([1]; 1 μM, 72 h): 0.375; Cellular Metabolic Activity ([1]; 1 μM, 96 h): 0.611; Cellular Metabolic Activity ([1]; 1 μM, time 0): 0.040; Cellular Metabolic Activity ([1]; 80 μM, 24 h): 0.042; Cellular Metabolic Activity ([1]; 80 μM, 48 h): 0.019; Cellular Metabolic Activity ([1]; 80 μM, 72 h): 0.018; Cellular Metabolic Activity ([1]; 80 μM, 96 h): 0.005; Cellular Metabolic Activity ([1]; 80 μM, time 0): 0.041; anandamide levels in a variety of brain regions (anandamide levels): significantly raised |
